Assay [1] has as its system C. elegans. As to the kind of experiment: Movement and healthspan analysis (worm activity, morphology, circularity). It is filed as in vivo. To be noted: 0.1 mM. The source says:
Worm movement was tracked from the images acquired by the ALM during the lifespan assay. Worm size and movement features were extracted and analyzed using custom software.
To measure healthspan, active worms were identified using the ALM scanner images from the lifespan assay (see Example 2). The worms' spatial location on the plate and their morphology were quantified throughout their lifespan to assess healthspan.
Worm Activity serves as a proxy for animal health. Changes in spatial distribution of the worms between time points is used to derive aggregate movement for the population over time. Worm Activity is described by two complementary measurements of aggregate movement, Centroid Distance and Spatial Distribution: • Centroid Distance calculates a geometric center for each individual worm, and then measures the minimum collective distance that a group of worms moved between time points. It achieves measurement of the changes in spatial distribution between time-points. • Spatial Distribution uses changes in worm contours between time points to measure the changes in the spatial distribution of the worms' bodies. The normalized distribution of these distances in the population provides a measure of how much the group of worms altered their positions and posture on the plate between two time-points.
For both of these Activity metrics, a plot with higher numbers indicates good health, and all measures are normalized to fall between 0 and 1.
Worm morphology is measured from the worm contours detected in the images. In the process of aging, worms become shorter and stouter over time and their shape is an indicator of their overall health and biological age. The Length is calculated from the central spline fitted to the worm contour and Width is measured from each worm's widest point. The worms' posture also changes with age as they lose the ability to maintain an elongated position. Average Circularity measures how close the shape and posture come to being enclosed by a circle.
Each of these measures are obtained by averaging data for all active worms detected on a plate, then averaging across different replicate plates of the same condition. All measurements are based on worms that are still alive and moving at the time of quantification. All measures start when worms are placed on the scanner at day 3 of adulthood.
Average Circularity. The Average Circularity Assay indicates worm heath by describing how closely the shape and posture of the worms is enclosed within a circle. Healthy, active worms maintain an elongated, albeit sinusoidal posture. As unhealthy and aged worms lose muscle function, they increasingly adopt a curled, bunched, or folded state in addition to a stout and wrinkled morphology.

Assay [2] has as its system C. elegans. Put plainly: Lifespan assay (Automated Lifespan Machine). In kind it is in vivo. The source says: N2 (Bristol) wild type strain has been used in this application.
To prevent chemical modification or metabolism of the test article by the food bacteria, worms were fed on a lawn of UV-killed bacteria (UV-i bacteria). An overnight culture of E. coli strain WP-2 was pelleted, washed, filtered, and irradiated. A suspension of UV-i bacteria was spotted on NGM agar containing Streptomycin to inhibit the growth of contaminating bacteria. The quantity and distribution of food bacteria were calibrated to ensure adequate access to food for the duration of assay while maintaining visibility of the worms.
The ALM used herein is based on the Caenorhabditis elegans lifespan machine published by Stroustrup et. al (Stroustrup, N. et al. The Caenorhabditis elegans Lifespan Machine. Nat Methods 10, 665-670 (2013)), with proprietary modifications to improve temperature stability and image acquisition. The scanner unit consists of a modified EPSON V850 and images are processed and analyzed using the ALM software (see id.). The machine time-of-death calls are trained and validated using the “storyboarding” feature of the ALM software.
The lifespan assay was designed and performed according to published and validated methods (Amrit, F. R. G., Ratnappan, R., Keith, S. A. & Ghazi, A. The C. elegans lifespan assay toolkit. Methods 68, 465-475 (2014)), using a modified version of the Automated Lifespan Machine (Stroustrup, N. et al. The Caenorhabditis elegans Lifespan Machine. Nat Methods 10, 665-670 (2013)). Worms were age synchronized by bleaching and eggs were plated directly onto NGM agar seeded with UV-i bacteria (Day 1, hatch). On Day 3, when the worms had reached the late L4 stage, they were transferred to dishes containing 100 μM 5-Fluorodeoxyuridine (FUdR) to suppress progeny. On day 5, the worms were washed off the dishes, and 30-50 worms were plated on each scanner dish. Plates were immobilized inverted on the bed of an Automated Lifespan Machine which scanned two images per hour of the plates continuously for the next 40 days.
Time of death calls exported from the ALM software was analyzed and plotted using the Lifelines software package developed by Cam Davidson-Pilon et. al (Lifelines Version: v0.25.9). Additional analysis performed using the OASIS2 analysis software (Seong Kyu Han et. al. OASIS 2: online application for survival analysis 2 with features for the analysis of maximal lifespan and healthspan in aging research. Oncotarget. 7:56147-56152. (2016)).
The lifespan assay was initiated by expanding all replicate groups to more than 1000 worms, then synchronizing by bleaching and allowing larval worms to hatch and arrest. To eliminate the effect of bacterial metabolism and growth on lifespan of C. elegans (wild type, and not over express β-amyloid peptide) worms, synchronized worms were only exposed to dead food bacteria. To suppress progeny, worms were transferred to media containing 5-Fluorodeoxyuridine (FUdR) within 54-60 hours post-plating. Worms were inspected 24 and 48 hours after this transfer to confirm infertility. Finally, the worms were inspected for general health and morphology before transferring to scanner plates. The scanner plates were incubated for an additional 2 days and inspected again before loading onto scanners.
To obtain high-resolution lifespan data and eliminate confounding factors such as worm handling and operator bias, lifespan data was collected using an Automated Lifespan Machine (ALM) (Stroustrup, N. et al. The Caenorhabditis elegans Lifespan Machine. Nat Methods 10, 665-670 (2013)). Three biological replicates, derived from synchronizing three independently maintained lines of N2 worms, were distributed across instruments. Images of the worms were then collected for the next 35 days with no interruption or manipulations. Some plates were excluded after quality checks, but plate number and worm count for all replicates exceeded the threshold for statistical significance (Table 1, row 1).

Structures are written as SMILES. “Also recorded” adds a separate entry of the source.

The text below walks through data of US12485110B2, “Use of ergothioneine for extending lifespan or improving healthspan” (NANJING NUTRABUILDING BIO-TECH CO., LTD., priority 2022, dated 2025).

On to `Oc1ccc(C=Cc2cc(O)cc(O)c2)cc1` [Resveratrol, reference compound], for which the “Average circularity / posture (FIG. 7)” value in the assay on C. elegans [1] (late life) was “maintained a more elongated posture well into late life”. Also, the “Aggregate movement (Centroid Distance and Spatial Distribution, FIGS. 5A-5B)” value with C. elegans [1] (over the duration of lifespan) was “more vigorous movement”. The “Worm morphology (size, FIGS. 6A-6C)” value in the assay with C. elegans [1] (over the lifespan) was “slightly smaller earlier in the assay but remained larger in the late life stages”. Further, in the assay on C. elegans [2] (0.1 mM), the “Age in days at 25% mortality” value was determined as 21.46 days, the “Age in days at 50% mortality” value was found to be 27.29 days, the “Age in days at 75% mortality” value worked out at 31.13 days and the “Age in days at 90% mortality” value came out at 35.89 days. Also, the “Age in days at 100% mortality” value with C. elegans [2] (0.1 mM) was 40.85 days. Also, the “Lifespan / survival relative to vehicle control (in words)” value in the assay on C. elegans [2] (0.1 mM positive control) was “significant positive increase in lifespan; also recorded: higher survival than the vehicle control at all timepoints”. In addition, the Maximum lifespan in the assay with C. elegans [2] (0.1 mM, 95th percentile of lifespans) is 37.3 days. The Median lifespan in the assay with C. elegans [2] (0.1 mM, N2 wild type, day 0 = day 1 of adulthood) was 27.3 days. The compound also came in with a Mean lifespan in the assay on C. elegans [2] (0.1 mM, area under survival curve) of 26.3 days.
